The record followed here is patent US4166125A, “2-Oxo-phenylbutanoic acid derivatives” (Grelan Pharmaceutical Co., Ltd., priority 1977, dated 1979).

One data set concerns carrageenin edema. Briefly: Inhibitory effect on carrageenin edema (oral administration). Type of data set: in vivo, rat (Sprague-Dawley strain). As to conditions: for ED40: Rattus norvegicus, po, 3 h. On the procedure: Inhibitory effect on carrageenin edema.
The experiment was carried out according to a method conforming to Van Arman, C. […] One hour after the administration of the test compound, 0.1 ml of 1% carrageenin solution in physiological saline was injected subcutaneously into the plantar sarface of the right hind paws of the rats. One hour after injection of carrageenin, the volume of the injected paws was measured hourly for 4 hours. Inhibition percent to carrageenin edema (%)* was calculated in comparison with the volume of paws of rats of a control group, to which only 0.3% CMC-Na solution was orally administered. [formula]
In general terms: Carrageenan injected into the paw causes an acute inflammation.

A short description of data set [1]: Stability on storage at 50° C. and humidity of 70% for 1 month. As to conditions: among the compounds (I). Type of data set: physicochemical. On the procedure:
For example, when the compounds (I) are kept at temperature of 50° C., and humidity of 70% for 1 month, no substantial change with respect to their appearances and values of quantitative analysis was observed, and no decomposition product was detected by thin-layer chromatography. Thus compounds (I) are prepared for administration in the form of pharmaceutical compositions according to conventional methods in the field of the art, and it is possible to prepare a pharmaceutical composition which comprises a therapeutically effective amount of at least one compound of the general formula (I) as an active ingredient, i.e. anti-inflammatory composition, in solid administration form (e.g. tablets, granules, powders, capsules, suppository), and liquid administration form (e.g. suspension, emulsion). In that case, as carrier, vehicle, solvent or dispersant, there may be used any of those which are known in the field of art. There may be exemplified water, starch, lactose, crystalline cellulose, magnesium stearate, hydroxypropyl cellulose, mannitol, carboxymethyl cellulose, glycol, ethanol, corn oil, peanut oil, castor oil, cacao butter, isocacao, polyoxyethylene stearate. […]

Data set [2] deals with gastric mucosa. Briefly: Effect on gastric mucosa (2) (oral administration). Type of data set: in vivo, rat (Sprague-Dawley strain). The following applies: rats, 4 hours. On the procedure:
4 Hours after the administration, the rat was sacrificed with ether, and its stomach was removed. The stomach was treated with 5% formalin for 3 minutes, and gastric mucosa was observed under a stereoscopic microscope. When gastric lesion in the mucosa was found, the number of the lesion in the mucosa was counted.

The test system of data set [3] is febrile body temperature (Brewer's yeast). Briefly: Antipyretic activity (oral administration). Type of data set: in vivo, rat (Sprague-Dawley strain). As to conditions: 30 mg/Kg. On the procedure: Antipyretic activity (oral administration)
According to a method conforming to Winter, C. A. et al [The Journal of Pharmacology and Experimental Therapeutics 133, 117, (1961)], 20% Brewer's yeast suspension in physiological saline was injected subcutaneously to 5 male rats in each group (Sprague-Dawley strain) weighing 200 to 250 g in an amount of 1.0 ml per 100 g of body weight of the rat. After fasting for 18 hours, each test compound suspended in 1% gum arabic solution was administered orally to the rats in an amount of 1.0 ml per 100 g of body weight. Then, the rectal temperature of the rats was taken.

The test system of data set [4] is gastric mucosa. Briefly: Effect on gastric mucosa (1) (oral administration). The following applies: mice, 4 hours. Type of data set: in vivo, mouse (ddY-strain). On the set-up: unit not given here. On the procedure:
4 Hours after the administration, the mouse was sacrificed with ether, and its stomach was removed. The stomach was treated with 5% formalin for 3 minutes, and gastric mucosa was observed under a stereoscopic microscope. When gastric lesion in the mucosa was found, the length of each lesion was measured. Degree of gastric damage (i.e. GD50)* was calculated on the basis of the length of the lesion of each mouse.
Remark *: GD50 : The value corresponding to the relative frequency of 50% on the normal probability paper plotted the length of gastric lesions of each mouse.

The subject of data set [5] is writhing syndrome due to acetic acid. Nature of the data set: Analgesic activity, stretching method (oral administration). Type of data set: in vivo, mouse (ddY-strain). On the procedure: The experiment was carried out according to a method conforming to Koster R. et al [Federation Proceedings 18, 412, (1960)]. […] 30 Minutes after administration of the test compound, 0.6% acetic acid aqueous solution was injected intraperitoneally to the mice in an amount of 0.1 ml per 10 g of body weight of the mouse, and then frequency of writhing syndrome due to acetic acid was counted for 20 minutes. Inhibition percent to the writhing syndrome was calculated in comparison with frequency of writhing syndrome counted on mice of a control group, to which only 1% gum arabic solution was orally administered.

For data set [6], the system named is pain threshold of hind paws (Brewer's yeast). Briefly: Analgesic activity, Randall and Selitto method (oral administration). Type of data set: in vivo, rat (Sprague-Dawley strain). As to conditions: Rattus norvegicus; oral, Litchfield-Wilcoxon method, from increasing percent of pain threshold. On the procedure: Randall and Selitto method
According to a method conforming to Randall, L. O. and Selitto, J. J. [Archives Internationales de Pharmacodynamie et de Therapie, 111, 409, (1957)], 0.1 ml of 10% Brewer's yeast suspension in physiological saline was injected subcutaneously into the plantar surface of the right hind paws of 5 male rats in each group (Sprague-Dawley strain) weighing 90 to 110 g. 2 Hours after administration of the yeast suspension, each test compound suspended in 0.3% CMC-Na solution was orally administered to the rats in an amount of 1.0 ml per 100 g of body weight of the rat. 30 Minutes, 60 minutes and 120 minutes after administration of the test compounds, threshold values of left and right hind paws of the rats were measured by an electric pressure device made by Daiwa Kinzoku Co., Ltd. (Japan). The change of threshold was obtained by comparing the pain threshold obtained in a group after the yeast injection with that obtained before the yeast injection, in the same group as above. Increasing percent of pain threshold of the test compound was calculated on the basis of the mean changes of threshold of the test group and of that of the control group. Rats of the control group were administered orally only 0.3% CMC-Na solution.
According to the Litchfield-Wilcoxon method [The Journal of Pharmacology and Experimental Therapeutics, 96, 96, (1949)], ED50 value was calculated as follows on the basis of the increasing percent of pain threshold;

The next data set relates to adjuvant arthritis. Briefly: Inhibition to adjuvant arthritis (oral administration). The following applies: for Increase in body weight / Weight of the organs: Adrenal glands / Weight of the organs: Spleen / Weight of the organs: Thymus: once a day for 7 days. Type of data set: in vivo, rat (Sprague-Dawley strain). On the procedure:
Inhibition to adjuvant arthritis.
According to a method conforming to Fujihira et al [Oyo Yakuri, 5, 169, (1971)], liquid paraffin suspension of Mycobacterium butiricum (hereinafter abbreviated as adjuvant) was injected subcutaneously to right hind paws of male rats (Spraque-Dawley strain) weighing 150 to 170 g in an amount of 0.3 mg/0.05 ml/rat. 14 Days after adjuvant injection, the rats, paws of which swelled to a similar degree, were selected and they were separated into groups. From the 15th day after adjuvant injection, each test compound suspended in 0.3% CMC-Na solution was orally administered once a day for 7 days to the 7 rats in each group in the dose shown in the following table 2.
The 16th, 19th and 22nd days after adjuvant injection the volume of left hand paws (i.e. paws not treated with the adjuvant) of the rats and their body weight were measured. Inhibition percent to the arthritis (edema) is calculated according to the same equation as that used in Experiment 1, and the value of ED40 is calculated on the basis of the inhibition percent. Then the rats were sacrificed with ether and the weight of their thymus, adrenal glands and spleen was determined.

Setting [7] is: 50 mg/Kg oral, 3 hour after administration.
Where [8] appears, read: 100 mg/Kg oral, 3 hour after administration.
Setting [9] is: 100 mg/Kg oral, 4 hour after administration.

Structures are written as SMILES.

By ED50 is commonly meant the dose at which the effect has come halfway, by size or by number of responders.

Take `CC(C(=O)C(=O)O)c1ccc(N2Cc3ccccc3C2=O)cc1` (centres unmarked) [2-Oxo-3-[4-(1-oxo-2-isoindolinyl)phenyl]butanoic acid]: the “Inhibition to carrageenin edema” value in the data set with carrageenin edema (setting [7]) is 22.5%; in the data set with carrageenin edema (setting [8]) it was 53.2%. For the same compound, in data set [1], the “Stability (in words)” value is “more stable”. The “Mean number of gastric lesion” value in the data set on gastric mucosa [2] (25 mg/Kg oral) is on record as 0; in the data set with gastric mucosa [2] (50 mg/Kg oral), 0; in the data set on gastric mucosa [2] (100 mg/Kg oral), 1.0.
As for `CC(=O)Oc1ccccc1C(=O)O` [Aspirin], in data set [3], the “Drop of febrile body temperature” value turned out to be 1 °C. The “Degree of gastric damage (GD50)” value with gastric mucosa [4] (100 mg/Kg oral) was found to be 2.0; with gastric mucosa [4] (200 mg/Kg oral) it was 16.1; in the data set on gastric mucosa [4] (282 mg/Kg oral), 18.6; in the data set on gastric mucosa [4] (400 mg/Kg oral) it was 31.2. Besides, the “Mean number of gastric lesion” value turned out to be 1.0 with gastric mucosa [2] (12.5 mg/Kg oral), 1.0 in the data set on gastric mucosa [2] (25 mg/Kg oral), 5.4 in the data set on gastric mucosa [2] (50 mg/Kg oral) and 15.0 with gastric mucosa [2] (100 mg/Kg oral). Also, the “Inhibition to writhing syndrome” value in data set [5] (100 mg/Kg oral) came to 0%; in data set [5] (200 mg/Kg oral), 43%; in data set [5] (400 mg/Kg oral) it was 70%.
Turning to `CC(C)Cc1ccc(C(C)C(=O)O)cc1` (centres unmarked) [Ibuprofen], the ED50 in data set [6] is 130 mg/kg. The “Inhibition to carrageenin edema” value in the data set with carrageenin edema (setting [7]) was found to be 19.2 ± 22.0%; in the data set with carrageenin edema (50 mg/Kg oral, 4 hour after administration) it was 23.5 ± 14.2%; with carrageenin edema (setting [8]), 42.2 ± 0.3%; in the data set on carrageenin edema (setting [9]), 33.7 ± 3.1%; in the data set on carrageenin edema (200 mg/Kg oral, 3 hour after administration), 43.9 ± 1.0%; in the data set on carrageenin edema (200 mg/Kg oral, 4 hour after administration) it was 37.1 ± 4.7%. In the data set with carrageenin edema, this compound registered an ED40 of 90 mg/kg. In addition, the “Inhibition to adjuvant arthritis” value in the data set on adjuvant arthritis (25 mg/Kg oral, 1st day) is on record as 25.6%; in the data set with adjuvant arthritis (25 mg/Kg oral, 4th day), 15.7%; with adjuvant arthritis (25 mg/Kg oral, 7th day) it was 32.0%; in the data set with adjuvant arthritis (100 mg/Kg oral, 1st day), 28.1%; with adjuvant arthritis (100 mg/Kg oral, 4th day), 37.3%; in the data set on adjuvant arthritis (100 mg/Kg oral, 7th day), 53.4%. The “Increase in body weight” value was 26.7 g with adjuvant arthritis (25 mg/Kg oral) and 16.0 g in the data set on adjuvant arthritis (100 mg/Kg oral). Further, the “Weight of the organs: Adrenal glands” value in the data set with adjuvant arthritis (25 mg/Kg oral) is listed as 13.7 ± 0.9 mg/100g of body weight; in the data set on adjuvant arthritis (100 mg/Kg oral), 15.3 ± 1.7 mg/100g of body weight. Also, the “Weight of the organs: Spleen” value in the data set on adjuvant arthritis (25 mg/Kg oral) is on record as 420.5 ± 34.9 mg/100g of body weight; in the data set with adjuvant arthritis (100 mg/Kg oral) it was 438.0 ± 40.0 mg/100g of body weight. The “Weight of the organs: Thymus” value in the data set on adjuvant arthritis (25 mg/Kg oral) is 143.3 ± 8.9 mg/100g of body weight; in the data set on adjuvant arthritis (100 mg/Kg oral), 127.8 ± 20.7 mg/100g of body weight.
As to `CCCCC1C(=O)N(c2ccccc2)N(c2ccccc2)C1=O` [Phenylbutazone], it took a dose of 250 mg/kg to reach the 50% effect level in data set [6] (ED50). The figures for the “Degree of gastric damage (GD50)” value with gastric mucosa [4] (100 mg/Kg oral), in the data set on gastric mucosa [4] (200 mg/Kg oral) and in the data set on gastric mucosa [4] (282 mg/Kg oral) were 5.2, 10.0 and 13.0, respectively. Further, the “Inhibition to carrageenin edema” value stood at 12.0 ± 5.5% in the data set with carrageenin edema (12.5 mg/Kg oral, 3 hour after administration); 19.9 ± 3.7% with carrageenin edema (12.5 mg/Kg oral, 4 hour after administration); 9.6 ± 8.3% in the data set on carrageenin edema (25 mg/Kg oral, 3 hour after administration); 14.3 ± 4.7% in the data set with carrageenin edema (25 mg/Kg oral, 4 hour after administration); 54.3 ± 2.0% in the data set with carrageenin edema (setting [8]); 50.7 ± 6.0% in the data set on carrageenin edema (setting [9]). Further, the ED40 in the data set with carrageenin edema was determined as 62 mg/kg. In addition, the “Mean number of gastric lesion” value in the data set with gastric mucosa [2] (50 mg/Kg oral) worked out at 0.2; with gastric mucosa [2] (100 mg/Kg oral), 4.2; in the data set with gastric mucosa [2] (200 mg/Kg oral) it was 9.6. Moreover, the “Inhibition to adjuvant arthritis” value in the data set with adjuvant arthritis (25 mg/Kg oral, 1st day) is listed as 32.2%; in the data set on adjuvant arthritis (25 mg/Kg oral, 4th day), 28.8%; in the data set on adjuvant arthritis (25 mg/Kg oral, 7th day) it was 38.3%; with adjuvant arthritis (100 mg/Kg oral, 1st day), 34.3%; in the data set with adjuvant arthritis (100 mg/Kg oral, 4th day) it was 37.9%; in the data set with adjuvant arthritis (100 mg/Kg oral, 7th day), 51.6%. For the same compound, the “Increase in body weight” value is listed as 30.9 g with adjuvant arthritis (25 mg/Kg oral) and 31.4 g in the data set on adjuvant arthritis (100 mg/Kg oral). Also, the “Weight of the organs: Adrenal glands” value in the data set on adjuvant arthritis (25 mg/Kg oral) is 13.2 ± 1.9 mg/100g of body weight; in the data set on adjuvant arthritis (100 mg/Kg oral) it was 12.0 ± 1.0 mg/100g of body weight. Further, the “Weight of the organs: Spleen” value is reported as 441.7 ± 29.9 mg/100g of body weight in the data set on adjuvant arthritis (25 mg/Kg oral) and 444.0 ± 39.6 mg/100g of body weight in the data set with adjuvant arthritis (100 mg/Kg oral). Also, the “Weight of the organs: Thymus” value in the data set with adjuvant arthritis (25 mg/Kg oral) was 141.6 ± 12.5 mg/100g of body weight; in the data set with adjuvant arthritis (100 mg/Kg oral), 146.2 ± 14.8 mg/100g of body weight. Also, the “Inhibition to writhing syndrome” value turned out to be 10% in data set [5] (100 mg/Kg oral), 15% in data set [5] (200 mg/Kg oral) and 61% in data set [5] (400 mg/Kg oral).
